Reference: US20240168030A1, “DIRECT FLUORESCENT GLYCAN LABELING” (BIO-TECHNE CORPORATION, priority 2019, published 2024)

T1: ST3Gal1 (Homo sapiens, UniProt Q11201)
T1 construct: purchased R&D Systems (Bio-Techne, Minneapolis, MN)
T1 sequence (Q11201 1-340): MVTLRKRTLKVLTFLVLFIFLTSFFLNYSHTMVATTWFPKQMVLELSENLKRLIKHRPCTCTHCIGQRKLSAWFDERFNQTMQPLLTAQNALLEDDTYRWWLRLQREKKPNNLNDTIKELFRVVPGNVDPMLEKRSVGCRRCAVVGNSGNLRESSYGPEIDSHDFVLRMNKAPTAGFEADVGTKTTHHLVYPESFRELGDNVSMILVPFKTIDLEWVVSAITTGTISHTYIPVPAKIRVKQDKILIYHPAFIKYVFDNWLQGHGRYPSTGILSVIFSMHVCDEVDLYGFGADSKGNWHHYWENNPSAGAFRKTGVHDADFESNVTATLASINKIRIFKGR

T2: ST6GalNAc1 (Homo sapiens, UniProt Q9NSC7)
T2 construct: purchased R&D Systems (Bio-Techne, Minneapolis, MN)
T2 sequence (Q9NSC7 1-600): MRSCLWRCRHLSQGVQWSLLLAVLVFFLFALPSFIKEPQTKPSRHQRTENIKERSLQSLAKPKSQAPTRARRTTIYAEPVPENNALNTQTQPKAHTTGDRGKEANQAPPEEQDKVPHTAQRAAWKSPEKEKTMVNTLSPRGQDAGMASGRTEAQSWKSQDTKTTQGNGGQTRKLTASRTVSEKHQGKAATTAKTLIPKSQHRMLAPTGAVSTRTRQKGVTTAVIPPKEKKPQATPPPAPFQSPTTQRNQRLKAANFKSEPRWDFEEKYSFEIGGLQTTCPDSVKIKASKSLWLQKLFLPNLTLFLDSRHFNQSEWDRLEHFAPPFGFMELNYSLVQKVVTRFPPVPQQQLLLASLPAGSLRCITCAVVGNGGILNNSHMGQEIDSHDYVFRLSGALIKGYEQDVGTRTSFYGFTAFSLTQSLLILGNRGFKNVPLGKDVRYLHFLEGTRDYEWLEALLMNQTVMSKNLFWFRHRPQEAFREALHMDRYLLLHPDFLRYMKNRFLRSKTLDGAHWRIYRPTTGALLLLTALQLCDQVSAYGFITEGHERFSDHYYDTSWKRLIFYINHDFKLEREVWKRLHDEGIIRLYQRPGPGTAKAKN

T3: ST3Gal4 (Homo sapiens, UniProt Q11206)
T3 construct: purchased R&D Systems (Bio-Techne, Minneapolis, MN)
T3 sequence (Q11206 1-333): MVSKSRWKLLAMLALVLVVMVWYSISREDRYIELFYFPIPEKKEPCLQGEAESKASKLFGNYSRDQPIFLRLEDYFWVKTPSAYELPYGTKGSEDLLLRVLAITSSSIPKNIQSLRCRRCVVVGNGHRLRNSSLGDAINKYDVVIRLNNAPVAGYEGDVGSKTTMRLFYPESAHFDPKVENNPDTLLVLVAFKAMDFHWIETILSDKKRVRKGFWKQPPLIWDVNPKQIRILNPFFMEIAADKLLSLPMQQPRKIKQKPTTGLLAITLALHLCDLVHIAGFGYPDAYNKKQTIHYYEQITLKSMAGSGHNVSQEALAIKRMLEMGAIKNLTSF

T4: ST6Gal1 (Homo sapiens, UniProt P15907)
T4 construct: purchased R&D Systems (Bio-Techne, Minneapolis, MN)
T4 sequence (P15907 1-406): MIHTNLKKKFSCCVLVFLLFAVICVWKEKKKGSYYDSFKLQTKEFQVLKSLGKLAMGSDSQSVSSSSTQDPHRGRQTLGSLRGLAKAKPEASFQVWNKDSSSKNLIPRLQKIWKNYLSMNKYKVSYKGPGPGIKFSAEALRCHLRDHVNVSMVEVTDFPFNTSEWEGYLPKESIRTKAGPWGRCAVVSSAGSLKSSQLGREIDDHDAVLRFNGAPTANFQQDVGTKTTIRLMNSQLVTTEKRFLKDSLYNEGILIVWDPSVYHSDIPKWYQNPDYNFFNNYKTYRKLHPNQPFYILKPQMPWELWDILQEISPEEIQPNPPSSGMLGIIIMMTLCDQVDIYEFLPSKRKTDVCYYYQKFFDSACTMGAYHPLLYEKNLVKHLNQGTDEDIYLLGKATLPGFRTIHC

T5: ST3Gal2 (Homo sapiens, UniProt Q16842)
T5 construct: purchased R&D Systems (Bio-Techne, Minneapolis, MN)
T5 sequence (Q16842 1-350): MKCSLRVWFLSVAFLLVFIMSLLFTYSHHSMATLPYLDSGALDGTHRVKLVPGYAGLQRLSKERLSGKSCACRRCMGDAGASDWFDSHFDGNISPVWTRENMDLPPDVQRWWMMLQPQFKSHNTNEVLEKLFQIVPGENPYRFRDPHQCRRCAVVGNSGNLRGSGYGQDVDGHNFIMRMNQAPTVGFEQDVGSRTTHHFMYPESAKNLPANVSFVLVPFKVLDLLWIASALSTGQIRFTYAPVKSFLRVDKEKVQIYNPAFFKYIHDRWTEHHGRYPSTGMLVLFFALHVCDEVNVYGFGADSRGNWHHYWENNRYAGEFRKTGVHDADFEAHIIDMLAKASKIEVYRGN

T6: ST6GalNAc4 (Homo sapiens, UniProt Q9H4F1)
T6 construct: purchased R&D Systems (Bio-Techne, Minneapolis, MN)
T6 sequence (Q9H4F1 1-302): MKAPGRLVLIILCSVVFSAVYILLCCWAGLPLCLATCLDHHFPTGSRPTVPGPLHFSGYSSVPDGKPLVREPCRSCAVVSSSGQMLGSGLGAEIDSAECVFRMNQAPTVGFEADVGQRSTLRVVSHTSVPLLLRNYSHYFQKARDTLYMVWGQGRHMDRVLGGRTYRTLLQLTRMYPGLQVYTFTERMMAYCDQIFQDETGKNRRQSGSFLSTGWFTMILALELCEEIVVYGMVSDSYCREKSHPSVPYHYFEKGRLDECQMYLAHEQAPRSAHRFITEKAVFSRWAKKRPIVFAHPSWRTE

T7: ST6GalNAc2 (Homo sapiens, UniProt Q9UJ37)
T7 sequence (Q9UJ37 1-374): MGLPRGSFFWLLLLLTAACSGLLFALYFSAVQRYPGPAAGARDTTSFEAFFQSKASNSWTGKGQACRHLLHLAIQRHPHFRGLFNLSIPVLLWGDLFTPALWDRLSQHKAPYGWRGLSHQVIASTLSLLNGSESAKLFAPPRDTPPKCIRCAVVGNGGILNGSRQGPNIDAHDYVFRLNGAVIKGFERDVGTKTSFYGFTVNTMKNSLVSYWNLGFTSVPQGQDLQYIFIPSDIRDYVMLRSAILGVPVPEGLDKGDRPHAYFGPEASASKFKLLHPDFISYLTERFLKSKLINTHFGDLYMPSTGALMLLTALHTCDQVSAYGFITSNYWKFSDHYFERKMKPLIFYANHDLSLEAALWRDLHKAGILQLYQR

B1: FUCA1: a lysosomal enzyme that hydrolyze α-fucose residues from glycans (protein, UniProt P04066 32-466, looked up)
Tissue alpha-L-fucosidase: QPPRRYTPDWPSLDSRPLPAWFDEAKFGVFIHWGVFSVPAWGSEWFWWHWQGEGRPQYQRFMRDNYPPGFSYADFGPQFTARFFHPEEWADLFQAAGAKYVVLTTKHHEGFTNWPSPVSWNWNSKDVGPHRDLVGELGTALRKRNIRYGLYHSLLEWFHPLYLLDKKNGFKTQHFVSAKTMPELYDLVNSYKPDLIWSDGEWECPDTYWNSTNFLSWLYNDSPVKDEVVVNDRWGQNCSCHHGGYYNCEDKFKPQSLPDHKWEMCTSIDKFSWGYRRDMALSDVTEESEIISELVQTVSLGGNYLLNIGPTKDGLIVPIFQERLLAVGKWLSINGEAIYASKPWRVQWEKNTTSVWYTSKGSAVYAIFLHWPENGVLNLESPITTSTTKITMLGIQGDLKWSTDPDKGLFISLPQLPPSAVPAEFAWTIKLTGVK

Assays:
ST3Gal1 = molecular target: T1, ST3Gal1; assay: Direct fluorescent glycan labeling (DFGL) with fluorophore-conjugated sialic acid by ST3Gal1; type: biochemical; set-up: key to Relative tolerance of the fluorophore by ST3Gal1: +++: indicated by + and − signs only; ++: indicated by + and − signs only; indicated by + and − signs only; indicated by + and − signs only; details: fluorophore-conjugated sialic acid donor; acceptor Gal of Core-1 O-glycan; fluorescence intensity of labeled fetuin or asialofetuin in FIG. 2
ST6GalNAc1 = molecular target: T2, ST6GalNAc1; assay: DFGL with fluorophore-conjugated sialic acid by ST6GalNAc1; type: biochemical; set-up: key: +++: indicated by + and − signs only; ++: indicated by + and − signs only; indicated by + and − signs only; indicated by + and − signs only; details: fluorophore-conjugated sialic acid donor; acceptor O-GalNAc, sialylation on terminal Gal is flexible; FIG. 2
ST3Gal4 = molecular target: T3, ST3Gal4; assay: DFGL with fluorophore-conjugated sialic acid by ST3Gal4; type: biochemical; set-up: key: +++: indicated by + and − signs only; ++: indicated by + and − signs only; indicated by + and − signs only; indicated by + and − signs only; details: fluorophore-conjugated sialic acid donor; acceptor Gal of N-glycan; fluorescence intensity of labeled fetuin or asialofetuin in FIG. 2
ST6Gal1 = molecular target: T4, ST6Gal1; assay: DFGL with fluorophore-conjugated sialic acid by ST6Gal1; type: biochemical; set-up: key to Relative tolerance of the fluorophore by ST6Gal1: +++: indicated by + and − signs only; ++: indicated by + and − signs only; indicated by + and − signs only; indicated by + and − signs only; details: fluorophore-conjugated sialic acid donor; acceptor Gal of N-glycan; fluorescence intensity of labeled fetuin or asialofetuin in FIG. 2
ST3Gal2 = molecular target: T5, ST3Gal2; assay: DFGL with fluorophore-conjugated sialic acid by ST3Gal2; type: biochemical; set-up: key: +++: indicated by + and − signs only; ++: indicated by + and − signs only; indicated by + and − signs only; indicated by + and − signs only; details: fluorophore-conjugated sialic acid donor; acceptor Gal of Core-1 O-glycan; fluorescence intensity of labeled fetuin or asialofetuin in FIG. 2
ST6GalNAc4 = molecular target: T6, ST6GalNAc4; assay: DFGL with fluorophore-conjugated sialic acid by ST6GalNAc4; type: biochemical; set-up: key to Relative tolerance of the fluorophore by ST6GalNAc4: +++: indicated by + and − signs only; ++: indicated by + and − signs only; indicated by + and − signs only; indicated by + and − signs only; details: for Relative tolerance of the fluorophore by ST6GalNAc4: fluorophore-conjugated sialic acid donor, acceptor O-GalNAc, with sialylated terminal Gal, FIG. 2
ST6GalNAc2 = molecular target: T7, ST6GalNAc2; assay: DFGL with fluorophore-conjugated sialic acid by ST6GalNAc2; type: biochemical; set-up: key: +++: indicated by + and − signs only; ++: indicated by + and − signs only; indicated by + and − signs only; indicated by + and − signs only; details: fluorophore-conjugated sialic acid donor; acceptor O-GalNAc, sialylation on terminal Gal is flexible; FIG. 2
fetuin and asialofetuin = assay: PNGase F and FUCA1 treatment of labeled fetuin and asialofetuin; type: biochemical, bovine; details: Cy5, FIG. 18B
Procedure: FIG. 18A-FIG. 18B show characterization of the labeled glycans on fetuin (Fet) and asialofetuin (AF) with PNGase F and FUCA1. FIG. 18A. PNGase F treatment of the labeled samples. […] Fet was labeled by FUT7 (F7) with Alexa Fluor® 488 (blue). Labeled samples were then treated with PNGase F to release the glycans. FIG. 18B. Effect of FUCA1 on the labeling. Samples without or with FUCA1 treatment were labeled by the indicated enzymes with Cy5. All samples were separated on 15% SDS-PAGE and imaged by silver staining, TCE staining and fluorescent imaging as indicated. M, Western blot molecular marker.
For a typical labeling reaction, 1 μg to 5 μg target protein was mixed with 0.2 nmol fluorophore-conjugated GDP-fucose and 0.2 μg of a fucosyltransferase in 30μL 25 mM Tris pH 7.5, 10 mM MnCl2. The mixture was incubated at 37° C. for 30 minutes. […] To release labeled glycans from a glycoprotein, the sample was first denatured by heating at 95° C. for two minutes in the presence of 0.5% SDS and 80 mM β-mercaptoethanol and then renatured with 1% Triton X-100, and finally treated with PNGase F at 10:1 mass ratio at 37° C. for 20 minutes. To release glycans from antibody, a sample was directly treated with Endo S at 10:1 mass ratio at 37° C. for 20 minutes. All samples were separated by sodium dodecyl sulfate—polyacrylamide gel electrophoresis (SDS-PAGE) at volts/cm. […]

Change of labeling on FUT7 labeled fetuin after the treatment (fetuin and asialofetuin) | Molecule | Relative tolerance of the fluorophore by ST3Gal1 (ST3Gal1) | Relative tolerance of the fluorophore by ST6GalNAc1 (ST6GalNAc1) | Relative tolerance of the fluorophore by ST3Gal4 (ST3Gal4) | Relative tolerance of the fluorophore by ST6Gal1 (ST6Gal1) | Relative tolerance of the fluorophore by ST3Gal2 (ST3Gal2) | Relative tolerance of the fluorophore by ST6GalNAc4 (ST6GalNAc4) | Relative tolerance of the fluorophore by ST6GalNAc2 (ST6GalNAc2) | Fluorophore preference of ST6GalNAc4 (ST6GalNAc4; Alexa Fluor® 555 over Cy5, FIG. 2)
 | cytidine monophosphate activated Alexa-Fluor®488-conjugated sialic acid [CMP-AF488-SA] | + | ++ | + | +++ | +++ | + | − | 
 | cytidine monophosphate activated Alexa-Fluor® 555-conjugated sialic acid [CMP-AF555-SA] | ++ | ++ | ++ | ++ | +++ | +++ | + | strong preference
two-fold increase | B1 |  |  |  |  |  |  |  | 
